SMILES | melting point
COc1c(NC(=O)c2ccccc2)cccc1C(=O)NC1C(Cl)=CC(C(F)(c2ccc(Cl)cc2)C(F)(F)F)=CC1(Cl)OC (stereo not drawn) | 163 to 166 °C
Nc1ncccc1C(=O)NCC1CCN(C[C@H]2COc3ccc(Cl)cc3O2)CC1 | 150 to 152 °C
Cc1ccc(-c2nc(C)cc(O)n2)cc1 | 206 to 207 °C
O=C(Cl)c1cccc(N2CCOCC2)c1 | 219 to 220 °C
CC(C)(C)c1ccc(C2C=C(c3ccc(C#C[Si](C)(C)C)cc3)NN2c2ccccc2)cc1 (stereo not drawn) | 160 to 162 °C
CCCCCCCCCCCCCCN(O)CCCCCCCCCCCCCC | 94 to 96 °C
COCCCS(=O)(=O)NC(=O)/C=C/c1cc(OC(C)C)nn1Cc1ccc(C(F)(F)F)cc1Cl | 138 to 139 °C
CC(C)(C)OC(=O)C(CSCc1ccc(-c2ccc(-c3cccc4c3oc3ccccc34)cc2)cc1)C(=O)O (stereo not drawn) | 205 to 206 °C
O=C(NCc1ccccc1)C1CC=CC(O)C1 (stereo not drawn) | 127 to 128 °C
NC(=O)c1cc2cc(F)c(F)cc2o1 | 217 °C
O=C(CCc1cnoc1-c1ccccc1)Nc1ccc2ncccc2c1 | 170 to 171 °C
CCOC(=O)c1nc2oc(C)c(C)c2c(=O)[nH]1 | 180 to 182 °C
CC1(C(=O)O)c2ccccc2Oc2ccccc21 | 87 to 88 °C
Clc1ccc(-c2nc(Sc3cccs3)[nH]c2-c2ccc(Cl)cc2)cc1 | 219 °C
Cn1cc2c(c1)-c1ccc(Cl)cc1C(c1ccccc1F)=NC2 | 142 to 144 °C
CC1(C)OCC(COC(=O)Cc2cccc3c(=O)cc(C4=CCCCC4)oc23)O1 (stereo not drawn) | 104 to 105 °C
CCNc1nc2cccc(C(=O)OC)c2n1Cc1ccc(-c2ccccc2-c2nnn[nH]2)cc1 | 256 to 258 °C
Cc1cnc(CCCCn2cnc(NC(N)=NCC(F)(F)F)n2)nc1O | 235 to 237 °C
Nc1ccn(C2CCCO2)c(=O)n1 (stereo not drawn) | 193 to 195 °C
CC(C)(C)c1cc(C(=O)c2cccs2)cc(CN2CCOCC2)c1O | 148 °C
Cc1ncc2cc(-c3c(C)cccc3Cl)c(N)nc2n1 | 267 to 271 °C
CCCCOC(=O)c1nn(-c2ccc(I)cc2)c(C)cc1=O | 134 to 137 °C
CC(C)Cc1nc2c(N)nc3ccccc3c2n1CCOc1ccccc1 | 177 to 178 °C
O=C(Nc1ccc(C(=O)N2Cc3cccn3Cc3ccccc32)cc1)c1ccc2[nH]ccc2c1 | 130 to 170 °C
CC(=O)NC[C@H]1CN(c2ccc(N3CCC4(CCO4)CC3)c(F)c2)C(=O)O1 | 164 to 166 °C

SMILES | melting point
CCCCCCCCCCCCCCCCCCOc1cc(N)cc([N+](=O)[O-])c1 | 106 to 108 °C
CCC(=O)Nc1onc2c1c(=O)n(C)c(=O)n2C | 150 to 152 °C
COC(=O)CSCCCCN(c1cnc(-c2ccccc2)c(-c2ccccc2)n1)C(C)C | 64 to 67 °C
N#CCc1ccccc1Sc1ccc(Cl)c(C(F)(F)F)c1 | 69 to 70 °C
CCC1(CC)c2cc(-c3ccc4c(c3)C(CC)(CC)c3cc(N(c5ccccc5)c5ccccc5)ccc3-4)ccc2-c2ccc(-c3nc4ccccc4s3)cc21 | 217 to 218 °C
CCOc1ccc(-c2noc3c(Cl)c(OC)ccc23)c(F)c1 | 151 to 152 °C
O=C(c1ccccc1)N1CCC(c2c[nH]c3cc(F)ccc23)CC1 | 220 °C
O=C(OC1CCCCC1=O)c1ccccc1 (stereo not drawn) | 81 to 83 °C
O=C(CCc1nnc(Nc2ccccc2Cl)o1)NC1CCN(Cc2ccc(Cl)c(Cl)c2)CC1 | 154 to 156 °C
CC1CN(c2cccc(Cl)n2)N=C1N (stereo not drawn) | 175 to 176 °C
CC(C)CC(S)C(=O)NC(C)(C)C(=O)NC(Cc1ccc(-c2cccs2)nc1)C(=O)O (stereo not drawn) | 194 to 196 °C
Cc1cccc(/C(N)=C2\Sc3ccccc3C2=O)c1 | 114 to 115 °C
O=C(O)c1ccc2cc(-c3cc4c(c(C56CC7CC(CC(C7)C5)C6)c3)OCO4)ccc2c1 | 300 to 305 °C
COc1ccc2c(c1)sc1nc(C)c(CO)n12 | 204 °C
CC(C)(C)NC(=O)Nc1nc2nc(N)ncc2cc1-c1ccncc1 | > 350 °C
CSc1nc2cnc3ccccc3c2s1 | 116 to 119 °C
CCOC(=O)COc1ccc(-c2nc(-c3ccc(C)cc3)nc(-c3ccc(C)cc3)n2)c(O)c1 | 166 to 167 °C
CC(C)(C)c1cc(C=O)c2ccccc2c1O | 195 to 196 °C
Fc1cc(F)cc(C=Cc2cc3cc4ccccc4cc3s2)c1 | 265 to 267 °C
COc1ccc2ccccc2c1CN1CCC(=O)C(C(c2ccc(F)cc2)c2ccc(F)cc2)C1 (stereo not drawn) | 125 to 126 °C
CC(=O)OC1CCC2(C)C(CCC3C4CCC(C(C)=O)C4(C)CC4OC432)C1 (stereo not drawn) | 133 to 136 °C
O=C(CC1CCOC1=O)c1ccccc1 (stereo not drawn) | 77 to 79 °C
CC(C)(C)OC(=O)N1CCC(c2ccc3oc(-c4ccc(S(C)(=O)=O)cc4F)nc3c2)CC1 | 168 to 171 °C
CC(O)c1sc(S(N)(=O)=O)cc1S(C)(=O)=O (stereo not drawn) | 121 to 127 °C
Cc1cc(-c2ccc(Cl)cc2)nc2c(I)cnn12 | 147 to 148 °C

SMILES | melting point
COc1ccc(C(=O)Cc2cc(OC)ccc2OC)cc1 | 108 to 111 °C
COc1cccc2oc(-c3ccccc3Cl)cc(=O)c12 | 148 to 149 °C
COC(=O)[C@H](Cc1ccc(OCCN2CCC(O)(c3ccccc3)CC2)cc1)NC(=O)[C@@H]1CCCN1S(=O)(=O)c1ccc(C)cc1 | 122 to 123 °C
CC(C)n1nc(C(=O)O)c2ccccc21 | 160 to 163 °C
N#Cc1cc2c(c(C(=O)O)c1)NCCS2 | 241 to 242 °C
CN(C)C=NS(=O)(=O)c1cc2cnc(C=O)cc2o1 | 186 to 188 °C
CCCCn1ccc(-c2ccc3c(c2)OCCN3C2CCOCC2)c(Cl)c1=O | 141 °C
NC1=NN(C(=O)NC=NO)C(=O)C1Cc1ccccc1 (stereo not drawn) | 195 °C
FC(F)(F)c1nc2cnc3ccccc3c2s1 | 113 to 114 °C
Cc1nc(N2C[C@@H](Cc3ccccc3)NC2=O)sc1C(=O)NCc1ccccc1 | 212 to 214 °C
CCCCCCCCCCCCCCC(=O)C(=O)NCCCC(=O)OCC | 63 to 64 °C
CCOC(=O)CCC1(C)Oc2ccc([N+](=O)[O-])cc2O1 (stereo not drawn) | 76 to 78 °C
CC(=O)Nc1ccc(C=C2CCc3ncc(C)cc3C2=O)cc1 | 226 to 228 °C
CC(=O)NNc1ccc(N=C=S)cc1 | 172 to 174 °C
Cc1cccc(C(=O)Nc2nc(-c3ccccc3)c(-c3ccc(=O)n(C(C)C)n3)s2)c1 | 198 to 199 °C
Fc1ccc(-n2c(CCl)csc2=S)c(F)c1F | 127 to 130 °C
Cc1cc(C)c(/C=C/C=O)c(Br)c1 | 99 to 103 °C
COc1cc(OC)c2c(=O)cc(-c3ccc(C#N)cc3)oc2c1C1CCN(C)C1CO (stereo not drawn) | 214 to 216 °C
Cn1cc(C(=O)NCc2ccc(Cl)cc2)c(=O)c2cc(CN3CCOCC3)cc(C#CCCO)c21 | 168 to 170 °C
Fc1cc2nn(CCC#Cc3ccccn3)nc2cc1F | 131 to 132 °C
COC(=O)c1cc(NC=O)ccn1 | 185 to 186 °C
Cn1ccnc1S[Si](C)(C)C | 49 to 52 °C
CC(C)Nc1ccc(C#Cc2cc(C(=O)Nc3ccc(CN4CCN(C)CC4)c(C(F)(F)F)c3)ccc2Cl)nn1 | 133 to 134 °C
